Source: the supplement of paper PMC10307832

Legend:
Test in all cases: relative viability (nuclei count vs DMSO), 5 days (fraction); higher = more cells survive
4EGI-1 + Pemetrexed = compound: O=C(O)C(Cc1ccccc1[N+](=O)[O-])=NNc1nc(-c2ccc(Cl)c(Cl)c2)cs1 (mixture of isomers) [4EGI-1] + Nc1nc2[nH]cc(CCc3ccc(C(=O)N[C@@H](CCC(=O)O)C(=O)O)cc3)c2c(=O)[nH]1 [Pemetrexed] (partner 0.2 µM)
Procedure, shortened: (§1)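 Lung cancer cell lines in 1536-well plates got either a single drug or a fixed anchor-drug dose together with five library-drug doses (not always all listed) in √10 steps, by pin tool, on the day after seeding. Nuclei were counted after 5 days, and relative viability is the treated-to-vehicle ratio of nuclei counts. Values are medians of duplicate plates.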

XMD8-85 + AZD7762 = compound: CN1CCN(CC1)C2=CC(=C(C=C2)NC3=NC=C4C(=N3)N(C5=CC=CC=C5C(=O)N4C)C)OC [XMD8-85] + NC(=O)Nc1cc(-c2cccc(F)c2)sc1C(=O)N[C@H]1CCCNC1 [AZD7762] (partner 0.2 µM)
Procedure, shortened: as §1

XMD8-85 + Palbociclib = compound: CN1CCN(CC1)C2=CC(=C(C=C2)NC3=NC=C4C(=N3)N(C5=CC=CC=C5C(=O)N4C)C)OC [XMD8-85] + CC(=O)c1c(C)c2cnc(Nc3ccc(N4CCNCC4)cn3)nc2n(C2CCCC2)c1=O [Palbociclib] (partner 0.5 µM)
Procedure, shortened: as §1

4EGI-1 + Luminespib = compound: O=C(O)C(Cc1ccccc1[N+](=O)[O-])=NNc1nc(-c2ccc(Cl)c(Cl)c2)cs1 (mixture of isomers) [4EGI-1] + CCNC(=O)c1noc(-c2cc(C(C)C)c(O)cc2O)c1-c1ccc(CN2CCOCC2)cc1 [Luminespib] (partner 0.01 µM)
Procedure, shortened: as §1

Cell Line: NCI-H1792
- relative viability (4EGI-1 + Pemetrexed; first compound 0.5 µM): 1.05
- relative viability (4EGI-1 + Pemetrexed; first compound 1.581 µM): 0.952
- relative viability (4EGI-1 + Pemetrexed; first compound 5 µM): 0.833
- relative viability (4EGI-1 + Pemetrexed; first compound 15.81 µM): 0.841
- relative viability (4EGI-1 + Pemetrexed; first compound 50 µM): 0.463
- relative viability (XMD8-85 + AZD7762; first compound 0.8 µM): 0.647
- relative viability (XMD8-85 + AZD7762; first compound 2.53 µM): 0.694
- relative viability (XMD8-85 + AZD7762; first compound 8 µM): 0.574
- relative viability (XMD8-85 + Palbociclib; first compound 0.253 µM): 0.642
- relative viability (XMD8-85 + Palbociclib; first compound 2.53 µM): 0.835
- relative viability (XMD8-85 + Palbociclib; first compound 8 µM): 0.551
- relative viability (4EGI-1 + Luminespib; first compound 0.5 µM): 0.917
- relative viability (4EGI-1 + Luminespib; first compound 1.581 µM): 0.414
- relative viability (4EGI-1 + Luminespib; first compound 5 µM): 0.411
- relative viability (4EGI-1 + Luminespib; first compound 15.81 µM): 0.37
- relative viability (4EGI-1 + Luminespib; first compound 50 µM): 0.236
